Data reported in ChEMBL document CHEMBL1201862, “PubChem BioAssay data set” (2004).
Where a name gives a salt, the structure may show the parent alone.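 Dose response: 5 concentrations. Exposure: 48 h. Format: 96-well plates. Endpoint: linear interpolation; highest concentration if not reached. GI50 marks 50% less growth.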 Calls of active or inactive are those of the source. Rule as the data show it: active = GI50 up to about 1.1 µM and inactive = higher.

Tests used:
Assay in all cases: NCI-60 cell line screen, 48 h
UACC-257 = tested on: UACC-257
HL-60 = tested on: HL-60
SF-539 = tested on: SF-539
A549 = tested on: A549
CCRF-CEM = tested on: CCRF-CEM
OVCAR-8 = tested on: OVCAR-8
IGROV-1 = tested on: IGROV-1
HOP-92 = tested on: HOP-92
HCT-116 = tested on: HCT-116
K562 = tested on: K562
SNB-19 = tested on: SNB-19
MDA-MB-435 = tested on: MDA-MB-435
OVCAR-3 = tested on: OVCAR-3
SN12C = tested on: SN12C
RPMI-8226 = tested on: RPMI-8226
HCC 2998 = tested on: HCC 2998
OVCAR-5 = tested on: OVCAR-5
COLO 205 = tested on: COLO 205
PC-3 = tested on: PC-3
SR = tested on: SR

Measured: GI50

CCOC(=O)/C(SC#N)=C(/N)N1CCCC1
inactive: UACC-257 > 100 µM | HL-60 > 100 µM | SF-539 > 100 µM | A549 > 100 µM | CCRF-CEM > 100 µM | OVCAR-8 > 100 µM | IGROV-1 > 100 µM | HOP-92 > 100 µM | HCT-116 > 100 µM | K562 > 100 µM | SNB-19 > 100 µM | MDA-MB-435 > 100 µM | OVCAR-3 > 100 µM | SN12C > 100 µM | RPMI-8226 > 100 µM | HCC 2998 > 100 µM | OVCAR-5 > 100 µM | COLO 205 > 100 µM | PC-3 > 100 µM | SR > 100 µM

CN(C)/N=N/c1ccc(NC=O)cc1
inactive: UACC-257 > 100 µM | HL-60 51.9 µM | SF-539 > 100 µM | A549 > 100 µM | CCRF-CEM 40.7 µM | OVCAR-8 > 100 µM | IGROV-1 > 100 µM | HOP-92 > 100 µM | HCT-116 > 100 µM | K562 43.3 µM | SNB-19 > 100 µM | MDA-MB-435 > 100 µM | OVCAR-3 > 100 µM | SN12C > 100 µM | RPMI-8226 69 µM | HCC 2998 > 100 µM | OVCAR-5 90.4 µM | COLO 205 > 100 µM | PC-3 > 100 µM | SR 48.6 µM

OC[P+](CO)(CO)C12CC3CC(CC(C3)C1)C2
inactive: UACC-257 > 100 µM | HL-60 10.3 µM | SF-539 > 100 µM | A549 > 100 µM | CCRF-CEM 4.9 µM | OVCAR-8 > 100 µM | IGROV-1 4.85 µM | HOP-92 > 86.9 µM | HCT-116 > 87.3 µM | K562 24.5 µM | SNB-19 87.1 µM | MDA-MB-435 > 100 µM | OVCAR-3 > 87.9 µM | SN12C > 100 µM | RPMI-8226 21.9 µM | HCC 2998 > 100 µM | OVCAR-5 > 100 µM | COLO 205 > 100 µM | PC-3 > 100 µM | SR 16.7 µM

O=C(Cc1ccccc1)Nc1nc2ccc(Cl)cc2c2nc(-c3ccco3)nn12
inactive: UACC-257 > 100 µM | HL-60 > 100 µM | SF-539 7.69 µM | A549 > 100 µM | CCRF-CEM > 100 µM | OVCAR-8 > 57.9 µM | IGROV-1 > 21.6 µM | HOP-92 2.48 µM | HCT-116 14.8 µM | K562 > 100 µM | SNB-19 > 35.7 µM | MDA-MB-435 > 100 µM | OVCAR-3 > 100 µM | SN12C > 100 µM | RPMI-8226 > 100 µM | HCC 2998 > 100 µM | OVCAR-5 > 100 µM | COLO 205 > 100 µM | PC-3 > 100 µM | SR 3.44 µM

CCCCOC(=O)CC(CC(=O)OCCCC)(OC(C)=O)C(=O)OCCCC [ACETYLTRIBUTYL CITRATE]
inactive: UACC-257 47.9 µM | HL-60 27.8 µM | SF-539 > 100 µM | A549 96.8 µM | CCRF-CEM 76.9 µM | OVCAR-8 > 190 µM | IGROV-1 > 200 µM | HOP-92 72.4 µM | HCT-116 56.4 µM | K562 29.6 µM | SNB-19 > 200 µM | MDA-MB-435 > 178 µM | OVCAR-3 > 200 µM | SN12C > 164 µM | RPMI-8226 16 µM | HCC 2998 > 200 µM | OVCAR-5 > 200 µM | COLO 205 60.1 µM | PC-3 132 µM | SR 14.7 µM
